From US11065274B2, “Prevention and treatment for microbial infections” (University of Rochester, priority 2015, dated 2021)

Key:
[1] = test system: 48 hour established Pseudomonas aeruginosa biofilms
[2] = test system: Staphylococcus aureus UAMS-1
[3] = test system: Klebsiella pneumoniae CKP4
[4] = test system: Acinetobacter baumannii 983709
[5] = test system: Pseudomonas aeruginosa PA01
[6] = test system: Enterococcus faecium 824-05
[7] = test system: Enterococcus faecalis V583
[8] = test system: Enterobacter cloacae Clinical Isolate
[9] = test system: 24 hour established A. baumannii biofilms
S. aureus [10] = test system: S. aureus
Description: (§1) Dose response measures of the antimicrobial activity of various concentrations (0 to 8% active agent) were used to define the optimal concentration of each agent alone and in combination.

P. aeruginosa [11] = test system: P. aeruginosa
Description: as §1

P. aeruginosa [12] = details: P. aeruginosa wound; 2% agent in PEG (combination 1%+1%), twice a day for three days
Protocol: (§2) Treatments were twice a day for a total of three days, at which point the wound bacterial burden was measured.

S. aureus [13] = details: 2% agent (combination 1% silver sulfadiazine and 1% zinc pyrithione), 3 day
Protocol: as §2

[14] = 0 to 8% active agent (ZnPt ˜0.015 to 0.25%; combination 0.015% to 4%)

**Q.** Which “reduction in biofilm associated Pseudomonas aeruginosa” value ([1]; 50 μM (15.8 μg ml^−1), 48 hour biofilm) does the source give for zinc pyrithione [ZnPt] here?
**A.** 1 log

**Q.** What about the “antibiofilm activity toward P. aeruginosa” value ([1]; low concentrations (4 to 64 μg ml^−1)) of the same substance?
**A.** comparable to that of silver sulfadiazine

**Q.** And the minimum inhibitory concentration (Escherichia coli 8307; Escherichia coli)?
**A.** 1 µg/mL

**Q.** What about the MIC (Escherichia coli 8307; Escherichia coli 8307) of the same substance?
**A.** 1 µg/mL

**Q.** What about the minimum inhibitory concentration ([2]; Staphylococcus aureus) of the same substance?
**A.** 2 µg/mL

**Q.** What about the MIC ([2]; Staphylococcus aureus UAMS-1) of the same substance?
**A.** 2 µg/mL

**Q.** And the minimum inhibitory concentration ([3]; Klebsiella pneumoniae)?
**A.** 2 µg/mL

**Q.** What about the MIC ([3]; Klebsiella pneumoniae CKP4) of the same substance?
**A.** 2 µg/mL

**Q.** And the minimum inhibitory concentration ([4]; Acinetobacter baumannii)?
**A.** 2 µg/mL

**Q.** And the MIC ([4]; Acinetobacter baumannii 983709)?
**A.** 2 µg/mL

**Q.** And the MIC ([5]; Pseudomonas aeruginosa PA01)?
**A.** 16 µg/mL

**Q.** And the minimum inhibitory concentration ([5]; planktonic P. aeruginosa)?
**A.** 16 µg/mL

**Q.** What about the minimum inhibitory concentration ([6]; Enterococcus faecium) of the same substance?
**A.** 2 µg/mL

**Q.** And the MIC ([6]; Enterococcus faecium 824-05)?
**A.** 2 µg/mL

**Q.** And the MIC [7]?
**A.** 2 µg/mL

**Q.** And the minimum inhibitory concentration ([8]; Enterbacter cloacae)?
**A.** 4 µg/mL

**Q.** What about the MIC ([8]; Enterobacter cloacae Clinical Isolate) of the same substance?
**A.** 4 µg/mL

**Q.** And the “antibiofilm activity toward A. baumannii biofilms” value ([9]; comparison of agents alone and in combination)?
**A.** improved activity

**Q.** What about the “reduction in biofilm associated A. baumannii” value ([9]; highest concentration tested (128 μg ml^−1; combination 64 μg ml^−1 of each agent)) of the same substance?
**A.** 3.5 log

**Q.** What about the “dose response of antimicrobial activity in PEG ointment” value (“dose response” for short) (A. baumannii; [14]) of the same substance?
**A.** dose-dependent increase in antimicrobial activity

**Q.** What about the “antimicrobial activity in PEG-formulation” value (A. baumannii; 1% agent or 1% combination (0.5% each)) of the same substance?
**A.** exhibited antimicrobial activity

**Q.** What about the “antimicrobial activity in PEG-formulation” value (S. aureus [10]) of the same substance?
**A.** exhibited antimicrobial activity

**Q.** What about the “dose response” value (S. aureus [10]; [14]) of the same substance?
**A.** dose-dependent increase in antimicrobial activity

**Q.** And the “dose response” value (P. aeruginosa [11]; P. aeruginosa, 0 to 8% active agent (ZnPt ˜0.015 to 0.25%; combination 0.015% to 4%))?
**A.** dose-dependent increase in antimicrobial activity

**Q.** What about the “antimicrobial activity in PEG-formulation” value (P. aeruginosa [11]; Pseudomonas aeruginosa) of the same substance?
**A.** exhibited antimicrobial activity

**Q.** What about the “decrease in bacterial burden” value (P. aeruginosa [12]) of the same substance?
**A.** 1.2 log

**Q.** What about the “animals completed cleared of S. aureus” value (S. aureus [13]) of the same substance?
**A.** 6 of 10
